Laboratory results as given in patent publication US20230381321A1, “CAMPTOTHECIN CONJUGATES” (priority 2022, published 2023).
Like-named read-outs stand apart in the source and are kept apart here.

Experiments:
Type in all cases: cell-based
[1] = tested on: renal carcinoma cells (786-O); assay: In vitro potency (CellTiter-Glo, 96 h) on 786-O; details: Homo sapiens, 786-0, 96 h, read-out: 786-O IC50
Procedure: (§1) In vitro potency was assessed on multiple cancer cell lines. All cell lines were authenticated by STR profiling at IDEXX Bioresearch and cultured for no more than 2 months after resuscitation. Cells cultured in log-phase growth were seeded for 24 hours in 96-well plates containing […] RPMI 1640 supplemented with 20% FBS. Serial dilutions of antibody-drug conjugates in cell culture media were prepared at 4x working concentrations, and 50 μL of each dilution was added to the 96-well plates. Following addition of test articles, cells were incubated with test articles for 4 days at […]. After 96 hours, growth inhibition was assessed by CellTiterGlo® (Promega, Madison, WI) and luminescence was measured on a plate reader.
(§2) Cell viability was determined by CellTiter-Glo staining after 96h exposure to ADC. ND=Not Determined. In the following tables, “Ex_” refers to a drug linker number. For example, “Ag4-Ex_4a” refers to a conjugate of an Ag4 antibody with drug linker 4a.

[2] = tested on: pancreatic cancer cells (BxPC3); assay: In vitro potency (CellTiter-Glo, 96 h) on BxPC3; details: Homo sapiens, BXPC-3, 96 h, read-out: BxPC3 IC50
Procedure: as §1, §2

[3] = tested on: anaplastic large cell lymphoma cells (DEL); assay: In vitro potency (CellTiter-Glo, 96 h) on DEL; details: 96 h, read-out: DEL IC50
Procedure: as §1, §2

[4] = tested on: anaplastic large cell lymphoma cells (DELBVR); assay: In vitro potency (CellTiter-Glo, 96 h) on DELBVR; details: 96 h, read-out: DELBVR IC50
Procedure: as §1, §2

[5] = tested on: anaplastic large cell lymphoma cells (Karpas299); assay: In vitro potency (CellTiter-Glo, 96 h) on Karpas299; details: Homo sapiens, KARPAS-299, 96 h, read-out: Karpas299 IC50
Procedure: as §1, §2

[6] = tested on: Hodgkin's lymphoma cells (L540cy); assay: In vitro potency (CellTiter-Glo, 96 h) on L540cy; details: L540cy, 96 h, read-out: L540cy IC50
Procedure: as §1, §2

[7] = In vitro potency (CellTiter-Glo, 96 h) on Ls174T; details: Homo sapiens, LS174T, read-out: Ls174T IC50
Procedure: as §1, §2

[8] = tested on: breast cancer cells (MDA-MB-231); assay: In vitro potency (CellTiter-Glo, 96 h) on MDA-MB-231; details: Homo sapiens, MDA-MB-231, 96 h, read-out: MDAMB 231 IC50
Procedure: as §1, §2

[9] = tested on: acute myeloid leukemia cells (MOLM-13); assay: In vitro potency (CellTiter-Glo, 96 h) on MOLM-13; details: Homo sapiens, MOLM-13, 96 h, read-out: MOLM-13 IC50
Procedure: as §1, §2

[10] = tested on: B-lymphocyte cancer cells (SU-DHL4); assay: In vitro potency (CellTiter-Glo, 96 h) on SU-DHL4; details: Homo sapiens, SU-DHL-4, 96 h, read-out: SU-DHL-4 IC50
Procedure: as §1, §2

[11] = CPT free drugs, CellTiter-Glo after 96 h exposure

Structure (SMILES) | IC50 [1] [nM] | IC50 [2] [nM] | IC50 [3] [nM] | IC50 [4] [nM] | IC50 [5] [nM] | IC50 [6] [nM] | IC50 ([7]; 96 h) [nM] | IC50 [8] [nM] | IC50 [9] [nM] | IC50 [10] [nM] | IC50 [1, 11] [nM] | IC50 [2, 11] [nM] | IC50 [3, 11] [nM] | IC50 [4, 11] [nM] | IC50 [5, 11] [nM] | IC50 [6, 11] [nM] | IC50 [7, 11] [nM] | IC50 [8, 11] [nM] | IC50 [9, 11] [nM] | IC50 [10, 11] [nM]
CC[C@@]1(O)C(=O)OCc2c1cc1n(c2=O)Cc2c-1nc1cc3c(cc1c2CN1CCC(N)CC1)OCO3 [Compound 8f] | 267 | 166 | 14 | 30 | 110 | 84 | 236 | 207 | 32 | 32 |  |  |  |  |  |  |  |  |  | 
CC[C@@]1(O)C(=O)OCc2c1cc1n(c2=O)Cc2c-1nc1cc(F)c(OC)c(Br)c1c2CN [Compound 2ad] |  |  |  |  |  |  |  |  |  |  | 9 | 22 | 1 | 1 | 7 | 4 | 17 | 15 | 5 | 4
CC[C@@]1(O)C(=O)OCc2c1cc1n(c2=O)Cc2c-1nc1cc3c(cc1c2CNC[C@H](O)CN1CCCCC1)OCO3 [Compound 7aa] | 131 | 66 | 17 | 19 | 63 | 51 | 188 | 228 | 69 | 19 |  |  |  |  |  |  |  |  |  | 
CC[C@@]1(O)C(=O)OCc2c1cc1n(c2=O)Cc2c-1nc1cc3c(cc1c2CNC(C)=O)CCO3 [Compound 12] | 13 | 12 | 1 | 1 | 24 | 5 | 19 | 27 | 5 | 1 |  |  |  |  |  |  |  |  |  | 
CC[C@@]1(O)C(=O)OCc2c1cc1n(c2=O)Cc2c-1nc1cc3c(cc1c2CN)COC3 [Compound 2ak] |  |  |  |  |  |  |  |  | 129 |  |  |  |  |  |  |  |  |  |  | 
CC[C@@]1(O)C(=O)OCc2c1cc1n(c2=O)Cc2c-1nc1cc3c(cc1c2CNC(=O)CN)CCO3 [Compound 13] | 139 | 94 | 8 | 21 | 126 | 45 | 195 | 177 | 88 | 18 |  |  |  |  |  |  |  |  |  | 
CC[C@@]1(O)C(=O)OCc2c1cc1n(c2=O)Cc2c-1nc1cc3c(cc1c2CNC1CCN(C)CC1)OCO3 [Compound 7w] | 15 | 13 | 2 | 2 | 8 | 6 | 16 | 26 | 26 | 6 |  |  |  |  |  |  |  |  |  | 
CC[C@@]1(O)C(=O)OCc2c1cc1n(c2=O)Cc2c-1nc1cc3c(cc1c2CNC[C@H](O)CO)OCO3 [Compound 7n] | 66 | 47 | 5 | 6 | 57 | 23 | 39 | 96 | 137 | 21 |  |  |  |  |  |  |  |  |  | 
CC[C@@]1(O)C(=O)OCc2c1cc1n(c2=O)Cc2c-1nc1cc3c(cc1c2CN1CCN(CCN)CC1)OCO3 [Compound 8c] | 27 | 14 | 3 | 4 | 28 | 14 | 32 | 57 | 69 | 7 |  |  |  |  |  |  |  |  |  | 
C=C(C)c1c(C)c(F)cc2nc3c(c(CN)c12)Cn1c-3cc2c(c1=O)COC(=O)[C@]2(O)CC [Compound 2al] | 4 | 7 | 1 | 1 | 4 | 2 | 11 | 9 | 2 | 1 |  |  |  |  |  |  |  |  |  | 
CC[C@@]1(O)C(=O)OCc2c1cc1n(c2=O)Cc2c-1nc1cc(F)c(C)c(/C=C/c3ccc(OC)cc3)c1c2CN [Compound 2ai] |  |  |  |  |  |  |  |  |  |  | 64 | 57 | 6 | 5 | 47 | 47 | 64 | 79 | 34 | 13
CC[C@@]1(O)C(=O)OCc2c1cc1n(c2=O)Cc2c-1nc1cc(F)c(F)c(F)c1c2CN [Compound 2ap] |  |  |  |  |  |  |  |  |  |  | 8 | 14 | 1 | 1 | 5 | 2 | 4 | 13 | 5 | 2
CC[C@@]1(O)C(=O)OCc2c1cc1n(c2=O)Cc2c-1nc1cc3c(cc1c2CN(C)CCCN)OCO3 [Compound 8, (5S)-14-[[3-aminopropyl(methyl)amino]methyl]-5-ethyl-5-hydroxy-7,18,20-trioxa-11,24-diazahexacyclo[11.11.0.02,11.04,9.015,23.017,21]tetracosa-1(13),2,4(9),14,16,21,23-heptaene-6,10-dione;2,2,2-trifluoroacetic acid] |  |  |  |  |  |  |  |  |  |  | 113 | 52 | 8 | 16 | 54 | 44 | 131 | 125 | 47 | 15
CC[C@@]1(O)C(=O)OCc2c1cc1n(c2=O)Cc2c-1nc1cc3c(cc1c2CNC1CCNCC1)OCO3 [Compound 8e] | 104 | 62 | 7 | 10 | 72 | 36 | 109 | 102 | 89 | 25 |  |  |  |  |  |  |  |  |  | 
CC[C@@]1(O)C(=O)OCc2c1cc1n(c2=O)Cc2c-1nc1cc(F)c(C)c(Cl)c1c2CNC(C)=O [Compound 12a] | 1 | 2 | 0.2 | 0.2 | 1 | 0.4 | 7 | 2 | 1 | 0.4 |  |  |  |  |  |  |  |  |  | 
CC[C@@]1(O)C(=O)OCc2c1cc1n(c2=O)Cc2c-1nc1cc(Br)c(OC)c(F)c1c2CN [Compound 2ah] |  |  |  |  |  |  |  |  |  |  | 108 | 199 | 12 | 11 | 65 | 54 | 152 | 149 | 125 | 29
CC[C@@]1(O)C(=O)OCc2c1cc1n(c2=O)Cc2c-1nc1cc3c(cc1c2CNC(C)=O)OCO3 [Compound 12b] | 12 | 11 |  | 1 | 8 | 4 | 22 | 28 | 3 | 1 |  |  |  |  |  |  |  |  |  | 
CC[C@@]1(O)C(=O)OCc2c1cc1n(c2=O)Cc2c-1nc1cc3c(cc1c2CNCCCN1CCNCC1)OCO3 [Compound 8d] | 15 | 14 | 2 | 2 | 9 | 6 | 19 | 25 | 37 | 6 |  |  |  |  |  |  |  |  |  | 
CC[C@@]1(O)C(=O)OCc2c1cc1n(c2=O)Cc2c-1nc1cc3c(cc1c2CNCCN1CCNCC1)OCO3 [Compound 8b] | 102 | 51 | 8 | 13 | 62 | 56 | 111 | 260 | 91 | 17 |  |  |  |  |  |  |  |  |  | 
CC[C@@]1(O)C(=O)OCc2c1cc1n(c2=O)Cc2c-1nc1cc3c(cc1c2CNCCCNC)OCO3 [Compound 8a] | 11 | 15 | 1 | 2 | 8 | 5 | 48 | 22 | 3 | 4 |  |  |  |  |  |  |  |  |  | 
